Values of other authors, collected in patent US7192954B2, “Monocyclic anilide spirohydantoin CGRP receptor antagonists” (Merck & Co., Inc., priority 2003, dated 2007).
Ends that are not written are not given here.

Experiments:
[1] = tested on: rats; conditions: electrical stimulation of the dura mater, prior administration
[2] = tested on: rat; conditions: trigeminal ganglion stimulation
[3] = tested on: marmoset; conditions: electrical stimulation of the trigeminal ganglion

Row | Molecule | increase of the diameter of the middle meningeal artery [1] | increase of facial blood flow [2] | increase in facial blood flow [3]
1 | CGRP(8–37): a peptide CGRP antagonist (VTHRLAGLLSRSGGVVKNNFVPTNVGSKAF; ends and bridges not checked; UniProt P06881 90-119, looked up, fragment) | blocked | inhibited | 
2 | NCCCC[C@H](NC(=O)[C@@H](Cc1cc(Br)c(O)c(Br)c1)NC(=O)N1CCC(N2Cc3ccccc3NC2=O)CC1)C(=O)N1CCN(c2ccncc2)CC1 [BIBN4096BS] |  |  | blocked
